Assay results reported in US4272437A, “Antibacterial agents, and 4-thio azetidinone intermediates” (priority 1979, dated 1981).
Converted amounts (≈) assume the structure as drawn. Read-outs that look alike come from different tables or passages of the source.

How the values were obtained:
[1] = test system: Gram-negative and Gram-positive organisms; conditions: literature; cited from earlier work
β-lactamases = conditions: literature; cited from earlier work
[2] = stability of isolated product (light, handling); format: physicochemical
K. pneumoniae A-15130 = test: MIC, tube dilution, Klebsiella pneumoniae A15130; format: cell-based; conditions: Klebsiella pneumoniae, A15130, K. pneumoniae A15130; overnight 37° C.; read-out: Minimum Inhibitory Concentration (M.I.C.)
From the text: (§1) Representative compounds of the present invention were subjected to in vitro antibiotic screening against a variety of microorganisms.

[3] = Mouse blood levels after intramuscular administration; format: in vivo; conditions: average of 6 mice, read-out: Mouse blood level
Protocol: Mouse blood levels after intramuscular administration of representative compounds of the present invention were determined and are reported in the table below.

[4] = test system: Staph. aureus (Pen-Res) A-9606; test: MIC, tube dilution, Staphylococcus aureus A9606 (Pen-Res); format: cell-based; conditions: Staphylococcus aureus, Staph. aureus A9606 (Pen-Res); overnight 37° C.; read-out: Minimum Inhibitory Concentration (M.I.C.)
From the text: as §1

Ser. marcescens A-20019 = test: MIC, tube dilution, Serratia marcescens A20019; format: cell-based; conditions: Serratia marcescens, A20019, Serratia marcescens A20019; overnight 37° C.; read-out: Minimum Inhibitory Concentration (M.I.C.)
From the text: as §1

[5] = test system: Staph. aureus (Meth-Res) A-15097; test: MIC, tube dilution, Staphylococcus aureus A15097 (Meth-Res); format: cell-based; conditions: Staphylococcus aureus, overnight 37° C.
From the text: as §1

E. coli A-20341-1 = test: MIC, tube dilution, Escherichia coli A20341-1; format: cell-based
From the text: as §1

S. aureus A9537 = test: In vivo protection of mice, lethal infection with S. aureus A9537; conditions: Staphylococcus aureus, A9537, im, IM, 2 treatments, 1 × 10^6 organisms; read-out: PD50
Protocol: Representative compounds of the present invention were also tested in vivo in mice and their PD50 (dose of compound in mg/kg required to protect 50% of the treated mice against an otherwise lethal infection of a micro-organism) values determined with respect to the test organisms shown below.

Str. faecalis A-20688 = test: MIC, tube dilution, Streptococcus faecalis A20688; format: cell-based; conditions: Enterococcus faecalis, A20688, Str. faecalis A20688; overnight 37° C.; read-out: Minimum Inhibitory Concentration (M.I.C.)
From the text: as §1

Ent. cloacae A-9656 = test: MIC, tube dilution, Enterobacter cloacae A9656; format: cell-based; conditions: overnight 37° C., read-out: Minimum Inhibitory Concentration (M.I.C.)
From the text: as §1

Ps. aeruginosa A-9843A = test: MIC, tube dilution, Pseudomonas aeruginosa A9843A; format: cell-based; conditions: Pseudomonas aeruginosa, A9843A, read-out: Minimum Inhibitory Concentration (M.I.C.), Pseudomonas aeruginosa A9843A; overnight 37° C.
From the text: as §1

Ent. cloacae A-9659 = test: MIC, tube dilution, Enterobacter cloacae A9659; format: cell-based; conditions: Enterobacter cloacae, A9659, Enterobacter cloacae A9659; overnight 37° C.; read-out: Minimum Inhibitory Concentration (M.I.C.)
From the text: as §1

Proteus rettgeri A21203 = test: MIC, tube dilution, Proteus rettgeri A21203; format: cell-based; conditions: Providencia rettgeri, overnight 37° C., read-out: Minimum Inhibitory Concentration (M.I.C.)
From the text: as §1

Staph. aureus A-9537 = test: MIC, tube dilution, Staphylococcus aureus A9537; format: cell-based; conditions: Staphylococcus aureus, A9537, Staph. aureus A9537; overnight 37° C., Nutrient Broth; read-out: Minimum Inhibitory Concentration (M.I.C.)
From the text: as §1

Ps. aeruginosa A-21213 = test: MIC, tube dilution, Pseudomonas aeruginosa A21213; format: cell-based; conditions: overnight 37° C., read-out: Minimum Inhibitory Concentration (M.I.C.)
From the text: as §1

[6] = test system: Hemophilus influenzae A9833; test: MIC, tube dilution, Hemophilus influenzae A9833; format: cell-based; conditions: Haemophilus influenzae
From the text: as §1

Pr. mirabilis A-9900 = test: MIC, tube dilution, Proteus mirabilis A9900; format: cell-based; conditions: Proteus mirabilis, A9900, Proteus mirabilis A9900; overnight 37° C.; read-out: Minimum Inhibitory Concentration (M.I.C.)
From the text: as §1

E. coli A-15119 = test: MIC, tube dilution, Escherichia coli A15119; format: cell-based; conditions: Escherichia coli, A15119, E. coli A15119; overnight 37° C.; read-out: Minimum Inhibitory Concentration (M.I.C.)
From the text: as §1

Str. pyogenes A-9604 = test: MIC, tube dilution, Streptococcus pyogenes A9604; format: cell-based; conditions: Streptococcus pyogenes, A9604, Str. pyogenes A9604; overnight 37° C., Nutrient Broth; read-out: Minimum Inhibitory Concentration (M.I.C.)
From the text: as §1

[7] = test system: Klebsiella species A20468; test: MIC, tube dilution, Klebsiella species A20468; format: cell-based; conditions: Klebsiella species (K. pneumoniae) A20468; overnight 37° C.; read-out: Minimum Inhibitory Concentration (M.I.C.)
From the text: as §1

Pr. morganii A-15153 = test: MIC, tube dilution, Proteus morganii A15153; format: cell-based; conditions: Morganella morganii, A15153, Proteus morganii A15153; overnight 37° C.; read-out: Minimum Inhibitory Concentration (M.I.C.)
From the text: as §1

Str. pneumoniae A-9585 = test: MIC, tube dilution, Streptococcus pneumoniae A9585; format: cell-based; conditions: Streptococcus pneumoniae, A9585, Str. pneumoniae A9585; overnight 37° C., Nutrient Broth; read-out: Minimum Inhibitory Concentration (M.I.C.)
From the text: as §1

[8] = test system: Staph. aureus A-9537 and 50% serum; test: MIC, tube dilution, Staph. aureus A9537 + 50% serum; format: cell-based, Staphylococcus aureus; conditions: Staphylococcus aureus, overnight 37° C., read-out: Minimum Inhibitory Concentration (M.I.C.)
From the text: as §1

Structure (SMILES): CC(=O)NC=C[S+]([O-])C1=C(C(=O)O)N2C(=O)C(C(C)OS(=O)(=O)O)C2C1 (stereo not shown)
- antibacterial activity [1]: some antibacterial activity
- β-lactamase inhibition (β-lactamases): β-lactamase inhibitor

Structure (SMILES): COC(=O)C1=C(C)OC2C(NC(c3ccccc3)(c3ccccc3)c3ccccc3)C(=O)N12 (stereo not shown)
- β-lactamase inhibition (β-lactamases): weak inhibitor of β-lactamases

Structure (SMILES): CC(=O)OC[C@H]1C(=O)N2C(C(=O)O)=C(CN)S[C@H]12 (relative stereo) [cis 6-Acetoxymethyl-2-aminomethylpenem-3-carboxylic Acid]
- stability [2]: unstable

Structure (SMILES): NCCC1=C(C(=O)O)N2C(=O)CC2S1 (stereo not shown) [Example 24, 2-Aminoethylpenem-3-carboxylic Acid]
- MIC (K. pneumoniae A-15130): > 125 µg/mL
- concentration at 10 min ([3]; 10 minutes after IM 40 mg/kg): 51400 ng/mL
- concentration at 20 min ([3]; 20 minutes after IM 40 mg/kg): 37100 ng/mL
- concentration at 0.5 h ([3]; 30 minutes after IM 40 mg/kg): 21800 ng/mL
- concentration at 0.75 h ([3]; 45 minutes after IM 40 mg/kg): 9400 ng/mL
- concentration at 1 h ([3]; 60 minutes after IM 40 mg/kg): 5000 ng/mL
- concentration at 1.5 h ([3]; 90 minutes after IM 40 mg/kg): < 3100 ng/mL
- concentration at 2 h ([3]; 120 minutes after IM 40 mg/kg): < 3100 ng/mL
- MIC [4]: 8 µg/mL (≈ 37.3 µM)
- MIC (Ser. marcescens A-20019): 63 µg/mL (≈ 294 µM)
- MIC ([5]; read-out: Minimum Inhibitory Concentration (M.I.C.), Staph. aureus A15097 (Meth-Res)): > 125 µg/mL
- MIC (E. coli A-20341-1; Escherichia coli, A203411; E. coli A20341-1; overnight 37° C.; read-out: Minimum Inhibitory Concentration (M.I.C.)): 125 µg/mL (≈ 583 µM)
- ED50 (S. aureus A9537): 0.63 mg/kg
- MIC (Str. faecalis A-20688): 63 µg/mL (≈ 294 µM)
- MIC (Ent. cloacae A-9656; Enterobacter cloacae A9656): 125 µg/mL (≈ 583 µM)
- MIC (Ps. aeruginosa A-9843A): 125 µg/mL (≈ 583 µM)
- MIC (Ent. cloacae A-9659): 63 µg/mL (≈ 294 µM)
- MIC (Proteus rettgeri A21203; Proteus rettgeri A21203): 125 µg/mL (≈ 583 µM)
- MIC (Staph. aureus A-9537): 4 µg/mL (≈ 18.7 µM)
- MIC (Ps. aeruginosa A-21213; Pseudomonas aeruginosa A21213): > 125 µg/mL
- MIC ([6]; A9833, read-out: Minimum Inhibitory Concentration (M.I.C.)): > 125 µg/mL
- MIC (Pr. mirabilis A-9900): 63 µg/mL (≈ 294 µM)
- MIC (E. coli A-15119): 32 µg/mL (≈ 149 µM)
- MIC (Str. pyogenes A-9604): 2 µg/mL (≈ 9.34 µM)
- MIC [7]: 125 µg/mL (≈ 583 µM)
- MIC (Pr. morganii A-15153): 125 µg/mL (≈ 583 µM)
- MIC (Str. pneumoniae A-9585): 2 µg/mL (≈ 9.34 µM)
- MIC [8]: 16 µg/mL

Structure (SMILES): CC(=O)NCCC1=C(C(=O)O)N2C(=O)CC2S1 (stereo not shown) [Example 25, Sodium 2-(2'-Acetamido-1'-ethyl)penem-3-carboxylate]
- MIC (K. pneumoniae A-15130): 16 µg/mL
- MIC [4]: 1 µg/mL
- MIC (Ser. marcescens A-20019): 4 µg/mL
- MIC ([5]; Staph. aureus A15097 (Meth-Res), read-out: Minimum Inhibitory Concentration (M.I.C.)): 125 µg/mL
- MIC (E. coli A-20341-1; Escherichia coli, A203411, E. coli A20341-1; overnight 37° C.; read-out: Minimum Inhibitory Concentration (M.I.C.)): 63 µg/mL
- MIC (Str. faecalis A-20688): 63 µg/mL
- MIC (Ent. cloacae A-9656; Enterobacter cloacae, A9656, Enterobacter cloacae A9656): 8 µg/mL
- MIC (Ps. aeruginosa A-9843A): 16 µg/mL
- MIC (Ent. cloacae A-9659): 4 µg/mL
- MIC (Proteus rettgeri A21203; A21203, Proteus rettgeri A21203): 8 µg/mL
- MIC (Staph. aureus A-9537): 0.5 µg/mL
- MIC (Ps. aeruginosa A-21213; Pseudomonas aeruginosa, A21213, Pseudomonas aeruginosa A21213): > 125 µg/mL
- MIC ([6]; Hemophilus influenzae A9833, overnight 37° C., read-out: Minimum Inhibitory Concentration (M.I.C.)): > 125 µg/mL
- MIC (Pr. mirabilis A-9900): 4 µg/mL
- MIC (E. coli A-15119): 4 µg/mL
- MIC (Str. pyogenes A-9604): 0.25 µg/mL
- MIC [7]: > 125 µg/mL
- MIC (Pr. morganii A-15153): 4 µg/mL
- MIC (Str. pneumoniae A-9585): 0.25 µg/mL
- MIC [8]: 8 µg/mL
